{"source": "patent US11945836B2", "about": "“Compositions and methods for treating CNS disorders” (Sage Therapeutics, Inc., priority 2014, dated 2024)"}
{"target": "rat brain cortical membranes ([35S]-TBPS binding)", "assay": "Steroid inhibition of [35S]-TBPS binding (radioligand displacement)", "details": "3 nM [35S]-TBPS, in the presence of 5 μM GABA", "method": "Steroid Inhibition of TBPS Binding\nTBPS binding assays using rat brain cortical membranes in the presence of 5 μM GABA has been described (Gee et al, J. Pharmacol. Exp. Ther. 1987, 241, 346-353; Hawkinson et al, Mol. Pharmacol. 1994, 46, 977-985; Lewin, A. H et al., Mol. Pharmacol. 1989, 35, 189-194).\nBriefly, cortices are rapidly removed following decapitation of carbon dioxide-anesthetized Sprague-Dawley rats (200-250 g). The cortices are homogenized in 10 volumes of ice-cold 0.32 M sucrose using a glass/teflon homogenizer and centrifuged at 1500×g for 10 min at 4° C. The resultant supernatants are centrifuged at 10,000×g for 20 min at 4° C. to obtain the P2 pellets. The P2 pellets are resuspended in 200 mM NaCl/50 mM Na—K phosphate pH 7.4 buffer and centrifuged at 10,000×g for 10 min at 4° C. This washing procedure is repeated twice and the pellets are resuspended in 10 volumes of buffer. Aliquots (100 uL) of the membrane suspensions are incubated with 3 nM [^35S]-TBPS and 5 μL aliquots of test drug dissolved in dimethyl sulfoxide (DMSO) (final 0.5%) in the presence of 5 μM GABA. The incubation is brought to a final volume of 1.0 mL with buffer. […] Following a 90 min incubation at room temp, the assays are terminated by filtration through glass fiber filters (Schleicher and Schuell No. 32) using a cell harvester (Brandel) and rinsed three times with ice-cold buffer. Filter bound radioactivity is measured by liquid scintillation spectrometry. Non-linear curve fitting of the overall data for each drug averaged for each concentration is done using Prism (GraphPad). […] The concentration of test compound producing 50% inhibition (IC50) of specific binding and the maximal extent of inhibition (Imax) are determined for the individual experiments with the same model used for the overall data and then the means±SEMs of the individual experiments are calculated.\nVarious compounds are or can be screened to determine their potential as modulators of [^35S]-TBPS binding in vitro. These assays are or can be performed in accordance with the above discussed procedures.", "units": {"IC50": "nM"}}
{"smiles": "C[C@@]1(O)CC[C@H]2[C@H](CC[C@@H]3[C@@H]2CC[C@]2(C)[C@@H](C(=O)c4nccs4)CC[C@@H]32)C1", "note": "[Compound 2]", "IC50": "> 100"}
{"smiles": "Cn1ccnc1C(=O)[C@H]1CC[C@H]2[C@@H]3CC[C@@H]4C[C@](C)(O)CC[C@@H]4[C@H]3CC[C@]12C", "note": "[Compound 3]", "IC50": "> 100"}
{"smiles": "C[C@@]1(O)CC[C@H]2[C@H](CC[C@@H]3[C@@H]2CC[C@]2(C)[C@@H](C(=O)c4cccs4)CC[C@@H]32)C1", "note": "[Compound 4]", "IC50": "20 to 50"}
{"smiles": "C[C@@]1(O)CC[C@H]2[C@H](CC[C@@H]3[C@@H]2CC[C@]2(C)[C@@H](C(=O)c4cc5ccccc5o4)CC[C@@H]32)C1", "note": "[Compound 5]", "IC50": "20 to 50"}
{"smiles": "Cn1c(C(=O)[C@H]2CC[C@H]3[C@@H]4CC[C@@H]5C[C@](C)(O)CC[C@@H]5[C@H]4CC[C@]23C)nc2ccccc21", "note": "[Compound 6]", "IC50": "> 100"}
{"smiles": "Cn1c(C(=O)[C@H]2CC[C@H]3[C@@H]4CC[C@@H]5C[C@](C)(O)CC[C@@H]5[C@H]4CC[C@]23C)cc2ccccc21", "note": "[Compound 7]", "IC50": "50 to 100"}
{"smiles": "Cn1nccc1C(=O)[C@H]1CC[C@H]2[C@@H]3CC[C@@H]4C[C@](C)(O)CC[C@@H]4[C@H]3CC[C@]12C", "note": "[Compound 9]", "IC50": "20 to 50"}
{"smiles": "C[C@@]1(O)CC[C@H]2[C@H](CC[C@@H]3[C@@H]2CC[C@]2(C)[C@@H](C(=O)c4ccsc4)CC[C@@H]32)C1", "note": "[Compound 10]", "IC50": "< 20"}
{"smiles": "C[C@@]1(O)CC[C@H]2[C@H](CC[C@@H]3[C@@H]2CC[C@]2(C)[C@@H](C(=O)c4csc5ccccc45)CC[C@@H]32)C1", "note": "[Compound 11]", "IC50": "20 to 50"}
{"smiles": "C[C@@]1(O)CC[C@H]2[C@H](CC[C@@H]3[C@@H]2CC[C@]2(C)[C@@H](C(=O)c4coc5ccccc45)CC[C@@H]32)C1", "note": "[Compound 12]", "IC50": "20 to 50"}
{"smiles": "COc1cc(OC)cc(C(=O)[C@H]2CC[C@H]3[C@@H]4CC[C@H]5C[C@](C)(O)CC[C@]5(C)[C@H]4CC[C@]23C)c1", "note": "[Compound 13]", "IC50": "> 100"}
{"smiles": "C[C@@]1(O)CC[C@@]2(C)[C@@H](CC[C@@H]3[C@@H]2CC[C@]2(C)[C@@H](C(=O)c4ccc5ccccc5c4)CC[C@@H]32)C1", "note": "[Compound 14]", "IC50": "50 to 100"}
{"smiles": "Cc1cc(C)cc(C(=O)[C@H]2CC[C@H]3[C@@H]4CC[C@@H]5C[C@](C)(O)CC[C@@H]5[C@H]4CC[C@]23C)c1", "note": "[Compound 16]", "IC50": "< 20"}
{"smiles": "Cc1ccc(C(=O)[C@H]2CC[C@H]3[C@@H]4CC[C@@H]5C[C@](C)(O)CC[C@]5(C)[C@H]4CC[C@]23C)cc1C", "note": "[Compound 17]", "IC50": "50 to 100"}
{"smiles": "C[C@@]1(O)CC[C@@]2(C)[C@H](CC[C@@H]3[C@@H]2CC[C@]2(C)[C@@H](C(=O)c4ccc5ccccc5c4)CC[C@@H]32)C1", "note": "[Compound 18]", "IC50": "50 to 100"}
{"smiles": "C[C@@]1(O)CC[C@H]2[C@H](CC[C@@H]3[C@@H]2CC[C@]2(C)[C@@H](C(=O)c4ccc5ccccc5c4)CC[C@@H]32)C1", "note": "[Compound 19]", "IC50": "50 to 100"}
{"smiles": "Cc1ccc(C(=O)[C@H]2CC[C@H]3[C@@H]4CC[C@@H]5C[C@](C)(O)CC[C@@H]5[C@H]4CC[C@]23C)cc1C", "note": "[Compound 20]", "IC50": "50 to 100"}
{"smiles": "COc1cc(OC)cc(C(=O)[C@H]2CC[C@H]3[C@@H]4CC[C@@H]5C[C@](C)(O)CC[C@]5(C)[C@H]4CC[C@]23C)c1", "note": "[Compound 21]", "IC50": "> 100"}
{"smiles": "C[C@@]1(O)CC[C@@]2(C)[C@H](CC[C@@H]3[C@@H]2CC[C@]2(C)[C@@H](C(=O)c4ccc(-c5ccccc5)cc4)CC[C@@H]32)C1", "note": "[Compound 22]", "IC50": "50 to 100"}
{"smiles": "C[C@@]1(O)CC[C@@]2(C)[C@H](CC[C@@H]3[C@@H]2CC[C@]2(C)[C@@H](C(=O)c4cc(F)cc(F)c4)CC[C@@H]32)C1", "note": "[Compound 23]", "IC50": "50 to 100"}
{"smiles": "C[C@@]1(O)CC[C@@]2(C)[C@H](CC[C@@H]3[C@@H]2CC[C@]2(C)[C@@H](C(=O)c4ccc5c(c4)OCO5)CC[C@@H]32)C1", "note": "[Compound 24]", "IC50": "< 20"}
{"smiles": "CSc1ccc(C(=O)[C@H]2CC[C@H]3[C@@H]4CC[C@@H]5C[C@](C)(O)CC[C@@H]5[C@H]4CC[C@]23C)cc1", "note": "[Compound 25]", "IC50": "20 to 50"}
{"smiles": "Cc1cc(C(=O)[C@H]2CC[C@H]3[C@@H]4CC[C@@H]5C[C@](C)(O)CC[C@@H]5[C@H]4CC[C@]23C)ccc1F", "note": "[Compound 26]", "IC50": "20 to 50"}
